# What was measured:
# [1] = test system: methicillin resistant staphylococcus aureus; test: CHE-phosphate in MRSA broth before and after FAC: MRSA strains; format: cell-based; settings: for Broth color after addition of FAC: 5 minutes at ambient temperature after FAC; for Broth color before addition FAC: LAB588, 37° C. for 22 hours
# Description: (§1) Scheme 2 above provides a pictorial representation of CHE-phosphate discriminating between methicillin resistant staphylococcus aureus and methicillin resistant coagulase negative Staphylococcus. The single phosphate group from CHE-phosphate is removed by the phosphatase activity of methicillin resistant staphylococcus aureus, but not by the coagulase negative staphylococcus, which lack this phosphatase activity. Addition of ferric ammonium citrate produces the dark, insoluble iron-3,4-cyclohexenoesculatin complex indicating the presence of methicillin resistant staphylococcus aureus. The dark complex is not formed between ferric ammonium citrate and CHE-phosphate, and therefore indicates the absence of phosphatase activity. Accordingly, a lack of a dark precipitate indicates the absence of methicillin resistant staphylococcus aureus.
# (§2) A panel of MRSA strains and coagulase negative staphylococci (clinical isolates) were cultured and tested in MRSA broth with CHE-phosphate using the same methodology as Example 2 CHE-phosphate was Dissolved at 200 mg/ml in 50:50 mixture of dimethylformamide and water. LAB588 (MRSA broth, Lab M limited) pre-dispensed to 10 ml volumes was supplemented with 25 μL aliquots from the prepared stock solution. A 0.5 Macfarlane standard suspension of methicillin resistant staphylococcus aureus and coagulase negative staphylococci strains were prepared from 18-24 h cultures grown in tryptic soy broth (LAB004, Lab M Limited) at 37° C. These were diluted to an amount sufficient to inoculate each sample with 100-1000 cfu. Samples were then incubated at 37° C. for 22 hours and observed for growth and color change. 50 μL aliquots of a 250 mg/ml stock solution of Ferric ammonium citrate (FAC) was then added to each sample and allowed to incubate at ambient temperature for 5 minutes. The samples were then observed for blackening indicating phosphatase activity by the presence of free 3,4-cyclohexenoesculatin (Table 3).
# [2] = test system: phosphatase activity of methicillin resistant staphylococcus aureus; test: Blackening after addition of ferric ammonium citrate (free CHE, phosphatase activity) in MRSA broth; format: cell-based; settings: for blackening after the addition of ferric ammonium citrate indicating the presence of free 3,4-cyclohexenoesculatin: 5 minutes at ambient temperature after FAC
# Procedure: (§3) CHE-phosphate, and 3,4-cyclohexenoesculatin diphosphate were dissolved at 200 mg/ml in a 50:50 mixture of dimethylformamide and water. 5-bromo-4-chloroindoxyl phosphate was dissolved at 200 mg/ml in a 50:50 mixture of ethanol and water. The mixtures of compounds were added individually to a MRSA broth (LAB588; Lab M limited) pre-dispensed to 10 ml volumes, after supplementation with cefoxitin selective agent, as 25 μL additions from the prepared stock solutions.
# (§4) A 0.5 Macfarlane standard suspension of methicillin resistant staphylococcus aureus strains were prepared from 18-24 h cultures grown in tryptic soy broth (LAB004; Lab M Limited) at 37° C. These were diluted and added to the MRSA broth samples in an amount sufficient to inoculate each sample with 100-1000 colony forming units (cfu). Target concentration was achieved by diluting a culture to a target level and inoculating sets of tubes at different inoculum dilutions so as to achieve the target range. The actual quantity inoculated was confirmed by plating 50 μl of the dilution onto Tryptone soy agar (LAB011) and incubating the plates for 18-24 h at 37° C. and counting the resulting colonies. This information was used to determine which tubes had been inoculated within the target dosing range.
# (§5) The broth is designed to selectively indicate a positive presence of MRSA by a yellow color, or a presumptive positive presence of MRSA by an orange color (Table 1). To the CHE-phosphate and 3,4-cyclohexenoesculatin diphosphate was added 50 μL of a 250/mg/ml stock solution of Ferric ammonium citrate and samples were allowed to incubate at ambient temperature for 5 minutes.
# [3] = test system: MRSA phosphatase activity; test: Confirmatory enzymatic test for MRSA phosphatase activity in the MRSA screening broth (initial investigation); format: cell-based, staphylococcus aureus; settings: substrate and ferric ammonium citrate added at end of incubation, or substrate included before incubation
# Description: MRSA detection broths based on the principle of mannitol and trehalose utilization and cefoxitin were designed to be a selective system for high throughput screening of clinical MRSA samples. The broths allow high volume screening of the majority of patient samples by a low cost method with confirmation of the few presumptive positive samples by rapid methods. The broths achieved good performance relative to Mannitol salts broth enrichment and/or direct plating (>98% sensitivity and >96 selectivity). In order to further enhance the selectivity of this broth system, the use of a confirmatory enzymatic test targeted at the MRSA phosphatase activity was investigated. […] Fluorogenic phosphatase substrate, although giving a confirming reaction, suffered from the disadvantage of nonspecific fluorescence in the broth probably due to compound stability, and also necessitated the use of non-auto fluorescent glass or plastic tubes. […]
# [4] = test system: methicillin resistant staphylococcus aureus strains; test: Growth and initial color change in MRSA screening broth (LAB588) containing the substrate; format: cell-based; settings: for Initial color change indicating the presence of MRSA: LAB588 broth with cefoxitin, 100-1000 cfu
# Procedure: as §3, §4, §5
# [5] = test system: methicillin resistant coagulase negative staphylococcus (clinical isolates); test: CHE-phosphate in MRSA broth before and after FAC: coagulase negative staphylococci; format: cell-based; settings: for Broth color after addition of FAC: 5 minutes at ambient temperature after FAC; for Broth color before addition FAC: LAB588, 37° C. for 22 hours
# Description: as §1, §2
smiles,measurement,setting,value
"O=c1oc2cc(O)c(OP(=O)(O)O)cc2c2c1CCCC2 [CHE-phosphate, sodium 3,4-cyclohexenoesculatin-6-phosphate (sodium 3-hydroxy-6-oxo-7,8,9,10-tetrahydro-6H-benzo[c]chromen-2-yl phosphate)]",Broth color after addition of FAC,[1]; MRSA 3,Black
same,Broth color before addition FAC,[1]; MRSA 3,Yellow
same,Broth color after addition of FAC,[1]; MRSA 15,Black
same,Broth color before addition FAC,[1]; MRSA 15,Yellow
same,Broth color after addition of FAC,[1]; MRSA 16A,Black
same,Broth color before addition FAC,[1]; MRSA 16A,Orange
same,Broth color after addition of FAC,[1]; MRSA 16B,Black
same,Broth color before addition FAC,[1]; MRSA 16B,Orange
same,Broth color after addition of FAC,[1]; MRSA 75,Black
same,Broth color before addition FAC,[1]; MRSA 75,Orange
same,Broth color after addition of FAC,[1]; S. aureus NCTC 12493,Black
same,Broth color before addition FAC,[1]; S. aureus NCTC 12493,Yellow
same,Specificity for the phosphatase enzyme of MRSA versus methicillin resistant coagulase negative staphylococci,[1]; summary of Table 3,specific for the phosphatase enzyme of MRSA
same,"blackening after the addition of ferric ammonium citrate indicating the presence of free 3,4-cyclohexenoesculatin",[2]; MRSA 3,Blackening
same,"blackening after the addition of ferric ammonium citrate indicating the presence of free 3,4-cyclohexenoesculatin",[2]; MRSA 15,Blackening
same,"blackening after the addition of ferric ammonium citrate indicating the presence of free 3,4-cyclohexenoesculatin",[2]; MRSA 15A (clinical isolate),Blackening
same,"blackening after the addition of ferric ammonium citrate indicating the presence of free 3,4-cyclohexenoesculatin",[2]; MRSA 15B (clinical isolate),Blackening
same,"blackening after the addition of ferric ammonium citrate indicating the presence of free 3,4-cyclohexenoesculatin",[2]; MRSA 15 C (clinical isolate),Blackening
same,"blackening after the addition of ferric ammonium citrate indicating the presence of free 3,4-cyclohexenoesculatin",[2]; MRSA 16A (clinical isolate),Blackening
same,"blackening after the addition of ferric ammonium citrate indicating the presence of free 3,4-cyclohexenoesculatin",[2]; MRSA 16B (clinical isolate),Blackening
same,"blackening after the addition of ferric ammonium citrate indicating the presence of free 3,4-cyclohexenoesculatin",[2]; MRSA 16 C (clinical isolate),Blackening
same,"blackening after the addition of ferric ammonium citrate indicating the presence of free 3,4-cyclohexenoesculatin",[2]; S. aureus NCTC 12493,Blackening
same,Specificity of enzymatic phosphatase activity for the substrate,[2]; summary of Table 2,specific
same,Blackening reaction in the MRSA screening broth,[3],readily observable blackening reaction
same,Initial color change indicating the presence of MRSA,[4]; MRSA 3,Growth (yellow)
same,Initial color change indicating the presence of MRSA,[4]; MRSA 15,Growth (yellow)
same,Initial color change indicating the presence of MRSA,[4]; MRSA 15A (clinical isolate),Growth (yellow)
same,Initial color change indicating the presence of MRSA,[4]; MRSA 15B (clinical isolate),Growth (yellow)
same,Initial color change indicating the presence of MRSA,[4]; MRSA 15C (clinical isolate),Growth (orange)
same,Initial color change indicating the presence of MRSA,[4]; MRSA 16A (clinical isolate),Growth (orange)
same,Initial color change indicating the presence of MRSA,[4]; MRSA 16B (clinical isolate),Growth (orange)
same,Initial color change indicating the presence of MRSA,[4]; MRSA 16C (clinical isolate),Growth (orange)
same,Inhibition of the growth of MRSA,"[4]; MRSA broth LAB588, summary of Table 1",not inhibitory
same,Initial color change indicating the presence of MRSA,[4]; S. aureus NCTC 12493,Growth (yellow)
same,Broth color after addition of FAC,[5]; CNS 22,Orange
same,Broth color before addition FAC,[5]; CNS 22,Orange
same,Broth color after addition of FAC,[5]; CNS 28,yellow
same,Broth color before addition FAC,[5]; CNS 28,yellow
same,Broth color after addition of FAC,[5]; CNS 33,orange
same,Broth color before addition FAC,[5]; CNS 33,orange
